For two molecules, Kd results are on record in paper PMC7006939 (ACS pharmacology & translational science, 2019).

The target in experiment [1] is T1, pirin (Homo sapiens, UniProt O00625).
T1 sequence (O00625 1-290): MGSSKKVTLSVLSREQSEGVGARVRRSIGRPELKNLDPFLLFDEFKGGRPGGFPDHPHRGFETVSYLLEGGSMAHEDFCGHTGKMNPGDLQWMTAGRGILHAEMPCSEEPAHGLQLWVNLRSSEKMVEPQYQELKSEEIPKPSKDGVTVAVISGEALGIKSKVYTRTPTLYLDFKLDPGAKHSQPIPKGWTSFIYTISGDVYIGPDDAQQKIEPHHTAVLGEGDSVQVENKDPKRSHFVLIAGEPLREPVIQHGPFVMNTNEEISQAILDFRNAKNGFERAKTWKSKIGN
Put plainly: ITC. The experiment is classed as binding.

The target in experiment [2] is T1, pirin. In words: ITC. The experiment is classed as binding. The source holds these as a separate data set.

Where two headings read alike, the source gives them in different places.

The term Kd denotes the equilibrium constant for the complex coming apart. A lower Kd goes with tighter binding. For `O=C(Nc1ccc(Cl)cc1)C1CN(C(=O)c2cc(F)cc(-c3ccncc3)c2)CC(F)(F)C1` (centres unmarked) [CCG-257081], binding at pirin [1] was characterised by a dissociation constant (Kd) of 8.5 µM. The molecule `O=C(Nc1ccc(Cl)cc1)C1CN(C(=O)c2cccc(-c3ccco3)c2)CC(F)(F)C1` (racemic) [CCG-222740] yielded a Kd at pirin [2] of 4.3 µM.
